Laboratory results from PMC11995216, “End-to-End Backbone Cyclization Enhances Passive Permeability of bRo5 Oligomeric Depsipeptides with Nonlinear Size Dependence” (ACS Medicinal Chemistry Letters, 2025).
“And” between values parts separate entries of the source, which are not always exact repeats. Equal values may be shown once. Read-outs that look alike come from different tables or passages of the source. Starred links: 1 amine or outer side, 2 acyl side, 3 side chain; linkers in the order of their positions; H or OH if unused. Non-standard residues stand in square brackets, D forms with d. Residues, ends and D or L forms follow the SMILES beside them. *: point of attachment. X2 = CCCCC[C@H](O*)C(=O)OCc1ccccc1; X1 = CCCCC[C@H](O[*:1])C(=O)[*:2]; Ahp(2) = CCCCC[C@H](N)C(=O)O; dNMeA = CN[C@H](C)C(=O)O; Boc = CC(C)(C)OC(=O)*

Assays:
PAMPA [1] = details: UV detection
[2] = calculated using Supplement Equation 1, UV detection
PAMPA [3] = details: UV detection, initial concentration 500 uM
[4] = initial concentration 500 uM, UV detection
[5] = PAMPA, 500 uM
[6] = UV detection
in vitro = details: PAMPA, Papp

For CCCCC[C@H](OC(=O)[C@@H](C)N(C)C(=O)[C@H](CCCCC)OC(=O)[C@@H](C)N(C)C(=O)[C@H](CCCCC)OC(=O)[C@@H](C)N(C)C(=O)[C@H](CCCCC)OC(=O)[C@@H](C)N(C)C(=O)[C@H](CCCCC)OC(=O)[C@@H](C)N(C)C(=O)OC(C)(C)C)C(=O)OCc1ccccc1 [Compound L1.5], the Papp (PAMPA [1]; Papp (x 10^-6 cm/s) / experiment 1) was 2.29 ×10⁻⁶ cm/s, the Papp (PAMPA [1]; Papp (x 10^-6 cm/s) / experiment 2) was 1.55 ×10⁻⁶ cm/s and the Papp (PAMPA [1]; Papp (x 10^-6 cm/s) / experiment 3) was 1.77 ×10⁻⁶ cm/s. For the same molecule, the Papp (PAMPA [1]; Papp (x 10^-6 cm/s) / experiment 4) was 1.78 ×10⁻⁶ cm/s, the Papp (PAMPA [1]; Papp (x 10^-6 cm/s) / experiment 5) was 1.56 ×10⁻⁶ cm/s and the Papp (PAMPA [1]; Papp (x 10^-6 cm/s) / experiment 6) was 1.9 ×10⁻⁶ cm/s. The Papp (PAMPA [1]; Papp (x 10^-6 cm/s) / experiment 7) was 1.61 ×10⁻⁶ cm/s, the Papp (PAMPA [1]; Papp (x 10^-6 cm/s) / experiment 8) was 1.79 ×10⁻⁶ cm/s and the Papp (PAMPA [1]; Papp (x 10^-6 cm/s) / experiment 9) was 1.89 ×10⁻⁶ cm/s. The Papp (PAMPA [1]; Papp (x 10^-6 cm/s) / experiment 10) was 1.94 ×10⁻⁶ cm/s, the %T ([2]; Well 1 / %T, Well 1) was 0.33% and 0.28% and the %T ([2]; Well 2 / %T, Well 2) was 0.24% and 0.25%. For the same molecule, the %T ([2]; Well 3 / %T, Well 3) was 0.27%, the %T ([2]; Well 4 / %T, Well 4) was 0.27% and 0.29% and the %T ([2]; Well 5 / %T, Well 5) was 0.24% and 0.29%. The Acceptor Concentration (PAMPA [3]; Acceptor Concentration (uM) / experiment 1) was 50.2 µM, the Acceptor Concentration (PAMPA [3]; Acceptor Concentration (uM) / experiment 2) was 38.4 µM and the Acceptor Concentration (PAMPA [3]; Acceptor Concentration (uM) / experiment 3) was 40.2 µM. The Acceptor Concentration (PAMPA [3]; Acceptor Concentration (uM) / experiment 4) was 40.8 µM, the Acceptor Concentration (PAMPA [3]; Acceptor Concentration (uM) / experiment 5) was 37.5 µM and the Acceptor Concentration (PAMPA [3]; Acceptor Concentration (uM) / experiment 6) was 47.1 µM. It also gave an Acceptor Concentration (PAMPA [3]; Acceptor Concentration (uM) / experiment 7) of 40.3 µM, an Acceptor Concentration (PAMPA [3]; Acceptor Concentration (uM) / experiment 8) of 41 µM and an Acceptor Concentration (PAMPA [3]; Acceptor Concentration (uM) / experiment 9) of 45.3 µM. For the same molecule, the Acceptor Concentration (PAMPA [3]; Acceptor Concentration (uM) / experiment 10) was 48 µM, the donor concentration after incubation ([4]; Well 1 / [donor], Well 1, standard curve) was 366 µM and 419 µM and the donor concentration after incubation ([4]; Well 2 / [donor], Well 2, standard curve) was 425 µM and 429 µM. For the same molecule, the donor concentration after incubation ([4]; Well 3 / [donor], Well 3, standard curve) was 387 µM and 389 µM, the donor concentration after incubation ([4]; Well 4 / [donor], Well 4, standard curve) was 390 µM and 406 µM and the donor concentration after incubation ([4]; Well 5 / [donor], Well 5, standard curve) was 412 µM and 419 µM. For the same molecule, the Δ % diffusion [5] was “↑4%”, the % recovery ([6]; Well 1 / %R, Well 1) was 83% and 93% and the % recovery ([6]; Well 2 / %R, Well 2) was 93% and 94%. The % recovery ([6]; Well 3 / %R, Well 3) was 85% and 86%, the % recovery ([6]; Well 4 / %R, Well 4) was 86% and 90% and the % recovery ([6]; Well 5 / %R, Well 5) was 90% and 93%. For the same molecule, the Papp at 500 uM (in vitro) was 1.81 ± 0.22 ×10⁻⁶ cm/s.

Molecule CCCCC[C@H](NC(=O)[C@@H](C)N(C)C(=O)OC(C)(C)C)C(=O)N(C)[C@H](C)C(=O)O[C@@H](CCCCC)C(=O)N(C)[C@H](C)C(=O)O[C@@H](CCCCC)C(=O)N(C)[C@H](C)C(=O)O[C@@H](CCCCC)C(=O)OCc1ccccc1 [Compound L2.1] (Boc-[dNMeA][Ahp(2)][dNMeA][X1][dNMeA][X1][dNMeA]-X2) has a Papp (PAMPA [1]; Papp (x 10^-6 cm/s) / [row 1]) of 3.57 ×10⁻⁶ cm/s, a Papp (PAMPA [1]; Papp (x 10^-6 cm/s) / [row 2]) of 4.24 ×10⁻⁶ cm/s and a Papp (PAMPA [1]; Papp (x 10^-6 cm/s) / [row 3]) of 3.98 ×10⁻⁶ cm/s. For the same molecule, the Papp (PAMPA [1]; Papp (x 10^-6 cm/s) / [row 4]) was 4.55 ×10⁻⁶ cm/s, the Papp (PAMPA [1]; Papp (x 10^-6 cm/s) / [row 5]) was 4.01 ×10⁻⁶ cm/s and the Papp (PAMPA [1]; Papp (x 10^-6 cm/s) / [row 6]) was 3.22 ×10⁻⁶ cm/s. It also gave a Papp (PAMPA [1]; Papp (x 10^-6 cm/s) / [row 7]) of 3.32 ×10⁻⁶ cm/s, a Papp (PAMPA [1]; Papp (x 10^-6 cm/s) / [row 8]) of 4.45 ×10⁻⁶ cm/s and a Papp (PAMPA [1]; Papp (x 10^-6 cm/s) / [row 9]) of 4.33 ×10⁻⁶ cm/s. The Papp (PAMPA [1]; Papp (x 10^-6 cm/s) / [row 10]) was 4.04 ×10⁻⁶ cm/s, the %T ([2]; Well 1 / %T, Well 1) was 0.47% and 0.5% and the %T ([2]; Well 2 / %T, Well 2) was 0.47% and 0.52%. For the same molecule, the %T ([2]; Well 3 / %T, Well 3) was 0.49%, the %T ([2]; Well 4 / %T, Well 4) was 0.48% and 0.5% and the %T ([2]; Well 5 / %T, Well 5) was 0.49% and 0.5%. It also gave an Acceptor Concentration (PAMPA [3]; Acceptor Concentration (uM) / [row 1]) of 83.2 µM, an Acceptor Concentration (PAMPA [3]; Acceptor Concentration (uM) / [row 2]) of 94.6 µM and an Acceptor Concentration (PAMPA [3]; Acceptor Concentration (uM) / [row 3]) of 90.8 µM. For the same molecule, the Acceptor Concentration (PAMPA [3]; Acceptor Concentration (uM) / [row 4]) was 98.2 µM, the Acceptor Concentration (PAMPA [3]; Acceptor Concentration (uM) / [row 5]) was 93.2 µM and the Acceptor Concentration (PAMPA [3]; Acceptor Concentration (uM) / [row 6]) was 76.9 µM. The Acceptor Concentration (PAMPA [3]; Acceptor Concentration (uM) / [row 7]) was 74.6 µM, the Acceptor Concentration (PAMPA [3]; Acceptor Concentration (uM) / [row 8]) was 97.5 µM and the Acceptor Concentration (PAMPA [3]; Acceptor Concentration (uM) / [row 9]) was 85.3 µM. The Acceptor Concentration (PAMPA [3]; Acceptor Concentration (uM) / [row 10]) was 83.9 µM, the donor concentration after incubation ([4]; Well 1 / [donor], Well 1) was 402 µM and 418 µM and the donor concentration after incubation ([4]; Well 2 / [donor], Well 2) was 377 µM and 393 µM. The donor concentration after incubation ([4]; Well 3 / [donor], Well 3) was 388 µM and 368 µM, the donor concentration after incubation ([4]; Well 4 / [donor], Well 4) was 363 µM and 335 µM and the donor concentration after incubation ([4]; Well 5 / [donor], Well 5) was 395 µM and 356 µM. For the same molecule, the LogPapp [5] was -5.40 ± 0.05, the Δ % diffusion [5] was “↑19%” and the % recovery ([6]; Well 1 / %R, Well 1) was 97% and 99%. For the same molecule, the % recovery ([6]; Well 2 / %R, Well 2) was 94%, the % recovery ([6]; Well 3 / %R, Well 3) was 96% and the % recovery ([6]; Well 4 / %R, Well 4) was 92% and 84%. The % recovery ([6]; Well 5 / %R, Well 5) was 98% and 88% and the Papp at 500 uM (in vitro) was 3.97 ± 0.46 ×10⁻⁶ cm/s.
